Laboratory results as given in patent publication US11369665B2, “Anti-inflammatory peptides and composition comprising the same” (GemVax & KAEL Co., Ltd., priority 2012, dated 2022).

How the values were obtained:
nitric oxide (NO) = assay: NO level analysis (Griess reagent) in LPS-stimulated Raw 264.7 cells; type: cell-based
Procedure: Raw 264.7 macrophage cell (KCBL, 40071) from Korea Cell Bank was maintained in Dulbecco's modified Eagle's medium (DMEM; PAA, Austria) containing 10% fetal bovine serum (FBS; GIBCO®), 100 unit/mL of streptomycin, and penicillin (Gibco Laboratories) at 37° C. with 5% CO2. Raw 264.7 cells were seeded into a 96-well plate at a density of 1×10^6 cells/mL and incubated overnight.
[…] After 30 min incubation of cells with the peptide 50 μL of LPS (to a final concentration of 1 μg/mL) was added, and cells were incubated for additional 24 hr. The experimental sample with the induction of inflammatory response was treated with 1 μg/mL mL lipopolysaccharide (LPS; SIGMA-ALDRICH®, USA) and control sample was treated with phosphate buffered saline (PBS; pH 7.2). The supernatant samples from each condition was collected in eppendorf tubes and subjected to further analysis.
The level of nitric oxide (NO) was measured in Raw 264.7 cell (1×10^6 cell/ml) using Griess reagent system (PROMEGA CORPORATION®, USA). Culture medium of 50 μl was added to a 96-well plate and Griess reagent I (NED) solution and Griess reagent II (Sulfanilamide solution) are added in the same amount. After 10 min incubation of cells with the reagents, the optical density at 540 nm was measured within 30 min using a microplate reader (MOLECULAR DEVICES®, USA). The concentration of NO was calculated by using a standard curve (0˜100 μM) of sodium nitrite.

cytokines = assay: qRT-PCR of cytokine levels in THP1 cell line; type: cell-based, human; settings: PMA-differentiated THP-1, LPS 10 ng/ml and 4 μM peptide, 4 hr, FIG. 3
Procedure: As a Human acute monocytic leukemia cell line, THP-1 monocyte cell line ([…] TYPE CULTURE COLLECTION® (Manassas, Va., USA) was used to reconfirm the effects of PEP 1. Cells were grown at a density of 0.5-7×10^5 cells/mL in RPMI 1640 containing 10% FBS, 0.05 mM 2-mercaptoethanol, 100 U/ml penicillin, 100 μg/mL streptomycin, and maintained at 37° C. under 5% CO2. THP-1 cells were differentiated into macrophages by treating cells with phorbol myristate acetate (PMA) at 100 ng/mL for 24 hr at 37° C. for 24 hr.
Following differentiation into macrophages, THP-1 cells were washed two times using complete RPMI 1640 (5 min/wash). Then, cells were treated for 4 hr. with 10 ng/ml LPS and/or 4 μM peptide RIA in FBS free RPMI 1640.
Total RNA samples were isolated from peptide-treated THP-1 cells by using Trizol (QIAZOL®) reagent and, and cDNA was synthesized by reverse transcriptase PCR using reverse transcription PCR kit from PROMEGA CORPORATION® following manufacturer's protocol.
Then, real-Time qPCR was performed using CFX96 (BIO-RAD®) instrument with SYBR® Green qPCR system. Primers used in the experiments are found in Table 5. The PCR cycling conditions were 95° C. for 10 min for activation of HotStart DNA Taq Polymerase, followed by 45 cycles of 95° C. for 10 sec. […] All samples were measured in triplicate and differences in gene expression were calculated using the 2-cycle threshold method. […]

GADD 153 = assay: 2D-electrophoresis protein expression in neural stem cells; type: cell-based, rat; settings: 20 ug β-amyloid + PEP 1 treated group, versus negative control 1.0
Procedure: (§1) Protein expression level of PEP-1 treated group and untreated group was analyzed by 2D-electrophoresis technique and antibody microarray technique. Prepared 200 μg by extracting proteome from the neural stem cells cultured in Experiment 3-1 of Example 3. In addition, the group in which PEP-1 was not treated was used as the comparison group in the same condition.
(§2) 2D-electrophoresis was performed using 12% acrylamide gels. First gel electrophoresis was performed at PI 4˜10 N, using a gel size of 8.5×7 cm. After electrophoresis, it was dyed with Colloidal Coomassie Blue, and then compared expression by using PDQuest software to analyze each spot.
(§3) Difference in the expression levels of more than 1.5 times was identified using MALDI-TOF MS (Matrix Desorption/Ionization Time of Flight Mass Spectromestry). Among these, proteins correlated with inflammation-related signaling, such as i-NOS and HMGB-1 were identified (Refer to Table 6). The changes in protein expression levels either increased or decreased by 1.5 times by amyloid-β protein, but it was confirmed that expression level was regulated close to that of negative control when PEP-1 was added (Refer to FIGS. 14A-14B).
(§4) The Table 6 below is an analysis of expression levels of proteins associated with inflammation by 2D electrophoresis technique. The control group represents protein expression level of cells that were not treated with neither amyloid-β protein nor PEP-1.

HMGB1 = assay: as above; type: cell-based, rat; settings: 20 ug β-amyloid + PEP 1 treated group, versus negative control 1.0
Procedure: as §1, §2, §3, §4

HSP 70 = assay: as above; type: cell-based, rat; settings: 20 ug β-amyloid + PEP 1 treated group, versus negative control 1.0
Procedure: as §1, §2, §3, §4

HSP 90 = assay: as above; type: cell-based, rat; settings: 20 ug β-amyloid + PEP 1 treated group, versus negative control 1.0
Procedure: as §1, §2, §3, §4

MAP Kinase = assay: as above; type: cell-based, rat; settings: 20 ug β-amyloid + PEP 1 treated group, versus negative control 1.0
Procedure: as §1, §2, §3, §4

Pyk2 = assay: as above; type: cell-based, rat; settings: 20 ug β-amyloid + PEP 1 treated group, versus negative control 1.0
Procedure: as §1, §2, §3, §4

e-NOS = assay: as above; type: cell-based, rat; settings: 20 ug β-amyloid + PEP 1 treated group, versus negative control 1.0
Procedure: as §1, §2, §3, §4

i-NOS = assay: as above; type: cell-based, rat; settings: 20 ug β-amyloid + PEP 1 treated group, versus negative control 1.0
Procedure: as §1, §2, §3, §4

[1] = LPS 1 μg/mL, PEP 1 0.5 μg/mL, 24 hr

## EARPALLTSRLRFIPK [PEP-1]
Nitric oxide (NO); [1]
  Decreased NO Expression Level (%): 65%
  NO Expression Level of control (%): 35%
Nitric oxide (NO); co-treatment with LPS
  NO level reduced to % of the control: 65%
cytokines
  cytokines involved in the inflammatory responses (qRT-PCR): decreased noticeably
GADD 153
  GADD 153 expression (fold): 1.2 fold
HMGB1
  HMGB1 expression (fold): 2.8 fold
HSP 70
  HSP 70 expression (fold): 1.2 fold
HSP 90
  HSP 90 expression (fold): 1.0 fold
MAP Kinase
  MAP Kinase expression (fold): 1.0 fold
Pyk2
  Pyk2 expression (fold): 1.2 fold
e-NOS
  e-NOS expression (fold): −1.1 fold
i-NOS
  i-NOS expression (fold): −1.1 fold
